Test results published in patent publication US11878059B2, “Sonodynamic therapy” (UNIVERSITY OF ULSTER, priority 2017, dated 2024).

Assays:
BxPc-3 [1] = experiment: MTT cytotoxicity of Biotin-Gem and Biotin-Gem-RB in BxPC-3 cells; format: cell-based, human; details: 48 h incubation
Method: To ensure the antimetabolite efficacy of Biotin-Gem and Biotin-Gem-RB were unaffected by chemical modification, the cytotoxicity of the conjugates was determined in the human pancreatic adenocarcinoma cell line BxPc-3. […] These cells were seeded into 96 well plates at a density of 5000 cells per well. The plates were then incubated for 24 hours followed by the addition of 100 uL of media spiked with either Gem, Biotin-Gem or Biotin-Gem-RB. The concentrations used for Biotin-Gem were […] while for Biotin-Gem-RB, concentrations of 0.01 μM, 0.05 μM, 0.1 μM, 0.5 μM, 1 μM, 5 μM and 10 μM were investigated. Corresponding concentrations of Gem were used in each case. The cells were then further incubated for 48 hours before cell viability was determined using an MTT assay.

Mia-PaCa-2 = experiment: MTT assay biotin-GEM-RB vs gemcitabine hydrochloride, Mia-PaCa-2; format: cell-based, human; details: Mia-PaCa-2, 0-1000 μM, 48 h
Method: (§1) Human primary pancreatic adenocarcinoma cell lines BxPc-3, Panc-1 and Mia-PaCa-2 were maintained in RPMI 1640 medium which was supplemented with 100 U/mL penicillin, […] streptomycin, and 10% fetal bovine serum (FBS) and Dulbecco's Modified Eagle's Medium (DMEM) containing 1 g/L glucose and supplemented with 100 U/mL penicillin, […] streptomycin, and 10% fetal bovine serum (FBS) respectively in a humidified 5% CO2 atmosphere at 37° C. These cells were seeded into 96 well plates at a density of 5000 cells per well. The plates were then incubated for 24 hours followed by the addition of 100 μL of media spiked with Gem or Biotin-Gem-RB at concentrations ranging from 0.001-1000 μM. The cells were then further incubated for 48 hours before cell viability was determined by an MTT assay.

Panc-1 = experiment: MTT assay biotin-GEM-RB vs gemcitabine hydrochloride, Panc-1; format: cell-based, human
Method: as §1

BxPc-3 [2] = experiment: MTT assay biotin-GEM-RB vs gemcitabine hydrochloride, BxPc-3; format: cell-based, human; details: BxPc-3, 0-1000 μM, 48 h
Method: as §1

MCF-7 cells = experiment: Colony forming assay in MCF-7 cells; format: cell-based, human; details: +US (1 MHz, 30 s, 3 Wcm^−2); PTX 1 nM, Dox 10 nM, RB 10 nM, 3 hours
Method: FIG. 16 is a plot showing % survival fraction from a MCF-7 colony forming assay. Cells following treatment with PTX/Dox/RB alone (Drug combo) or following treatment with ultrasound (Drug Combo+US). After treatment cells were incubated for 8 days followed by fixation and staining. Crystal violet staining was quantified via Image J.
In this study, the concentration of each individual drug used was intentionally sub-lethal, so that any benefit obtained by the combination treatment could easily be identified. In addition, as the action of ultrasound can influence the cellular uptake of drugs as a result of sonoporation, cells treated with Dox or PTX were also exposed to ultrasound, to control for any potential ultrasound mediated effects on cell viability as a result of sonoporation. Following treatment, cell viability was determined using a colony forming assay.
MCF-7 cells were seeded (5×10^3) in a 96 well plate, 24 hours later cells were treated with free drug as a single treatment of PTX (1 nM), Dox (10 nM), RB (10 nM) or combination treatment for 3 hours followed by media replacement. Selected wells were treated with ultrasound delivered using a Sonidel SP100 sonoporator (1 MHz, 30 seconds, 3 Wcm^−2, duty cycle=50%, and PRF=100 Hz). The following day cells were pooled from 2 wells and seeded in a 6 well plate. Plates were placed in an incubator for 7 days. Media was removed from wells, fixation/staining solution was added at room temperature for 20 minutes. Fixative/staining solution contained: 0.5 g crystal violet (0.05%), 27 ml 37% formaldehyde, 100 ml 10×PBS (X1), 10 mL methanol (1%) and 863 mL of distilled water. Solution was removed and washed under running water. Pictures were taking using a high-resolution camera and colony formation was analysed via Image J.

[3] = Body weight of Mia-PaCa-2 tumour bearing mice (FIG. 11b); format: in vivo, SCID mice; details: clinical dose 120 mg/Kg I.P., day 6
Method: The microbubble suspension (6.86×10^7±1.99×10^6 MB) was delivered as a 100 uL I.V injection (PTX—2.44±0.37 mg/Kg, GEM—0.5±0.04 mg/Kg, RB—1.85±0.14 mg/Kg). Gemcitabine hydrochloride was dissolved in sterile PBS and administered as a 100 uL I.P injection (120 mg/Kg). Ultrasound treatment was delivered for 3.5 minutes at frequency of 1 MHz, an ultrasound power density of 3.5 W/cm^2 and a duty cycle of 30% immediately after injection and 30 minutes following. Error bars represent±the standard error.
Mia-Paca-2 cells were maintained in DMEM medium and BxPc-3 cells were maintained in RPMI 1640 both supplemented with 100 U/mL penicillin, […] streptomycin, and 10% fetal bovine serum (FBS) in a humidified 5% CO2 atmosphere at 37° C. Cells (5×10^6) were re-suspended in Matrigel® and implanted subcutaneously into the rear dorsum of SCID (C.B-17/IcrHan®Hsd-Prkdcscid) mice. Tumours reached treatable size within 3 weeks. Tumour measurements were taken daily using callipers. Once the tumours had reached an average volume of 150 mm^3 animals were randomly assigned into treatment groups. Animals were anaesthetised by intraperitoneal injection of hypnorm:hypnovel:ice cold sterile water for injection (1:2:1). […] Tumour growth was monitored daily throughout the course of the treatment.

SMILES: Nc1ccn([C@@H]2O[C@H](COC(=O)OCCNC(=O)CCCCC3SCC4NC(=O)NC43)[C@@H](O)C2(F)F)c(=O)n1 (stereo partly drawn) [Biotin-Gem, (2R,3R,5R)-5-(4-amino-2-oxopyrimidin-1(2H)-yl)-4,4-difluoro-3 hydroxytetrahydrofuran-2-yl)methyl (2-(5-(2-oxohexahydro-1H-thieno[3,4-d]imidazol-4-yl)pentanamido)ethyl) carbonate]
- efficacy (cell viability, MTT) compared to Gemcitabine (BxPc-3 [1]; 0-100 μM): no statistically significant difference in efficacy

SMILES: Nc1ccn([C@@H]2O[C@H](COC(=O)CCCCCCC(=O)NCCN(CCNC(=O)CCCCCCC(=O)NCCOC(=O)c3c(Cl)c(Cl)c(Cl)c(Cl)c3-c3c4cc(I)c(=O)c(I)c-4oc4c(I)c(O)c(I)cc34)CCNC(=O)CCCCC3SCC4NC(=O)NC43)[C@@H](O)C2(F)F)c(=O)n1 (stereo partly drawn) [Biotin-Gem-RB, ((2R,3R, 5R)-5-(4-amino-2-oxopyrimidin-1 (2H)-yl)-4,4-difluoro-3-hydroxytetrahydrofuran-2-yl)methyl 4,11,19-trioxo-15-(2-(5-(2-oxohexahydro-1H-thieno[3,4-d]imidazol-4-yl)pentanamido)ethyl)-1-((2,3,4,5-tetrachloro-6-(6-hydroxy-2,4,5,7-tetraiodo-3-oxo-3H-xanthen-9-yl)benzoyl)oxy)-3,12,15,18-tetraazahexacosan-26-oate]
- efficacy vs gemcitabine HCl (MTT) (Mia-PaCa-2): no decrease in efficacy
- efficacy (cell viability, MTT) compared to Gemcitabine (BxPc-3 [1]; 0.01-10 μM): no statistically significant difference in efficacy
- efficacy vs gemcitabine HCl (MTT) (Panc-1; Panc-1, 0-1000 μM, 48 h): no decrease in efficacy
- efficacy vs gemcitabine HCl (MTT) (Panc-1; Panc-1, above 10 μM): significant increase in efficacy
- efficacy vs gemcitabine HCl (MTT) (BxPc-3 [2]): no decrease in efficacy

SMILES: COc1cccc2c1C(=O)c1c(O)c3c(c(O)c1C2=O)C[C@@](O)(C(=O)CO)C[C@@H]3O[C@H]1C[C@H](N)[C@H](O)[C@H](C)O1 [Dox, doxorubicin]
- reduction of colony number compared to untreated cells (MCF-7 cells): 29.3%

SMILES: CC(=O)O[C@H]1C(=O)[C@@]2(C)[C@H]([C@H](OC(=O)c3ccccc3)[C@]3(O)C[C@H](OC(=O)[C@H](O)[C@@H](NC(=O)c4ccccc4)c4ccccc4)C(C)=C1C3(C)C)[C@]1(OC(C)=O)CO[C@@H]1C[C@@H]2O [PTX, paclitaxel]
- reduction of colony number compared to untreated cells (MCF-7 cells): 7.3%

SMILES: O=C1OC2(c3cc(I)c(O)c(I)c3Oc3c2cc(I)c(O)c3I)c2c(Cl)c(Cl)c(Cl)c(Cl)c21 [RB, Rose Bengal]
- reduction of colony number compared to untreated cells (MCF-7 cells): 18.8%

SMILES: Nc1ccn([C@@H]2O[C@H](CO)[C@@H](O)C2(F)F)c(=O)n1 [gemcitabine]
- decrease in body weight [3]: 12%
